From US20240270692A1, “S(+) FORM OF 4-(2,4-DIFLUOROPHENYL)-2-(1H-INDOL-3-YL)-4-OXO-BUTANOIC ACID” (TOHOKU UNIVERSITY, priority 2021, published 2024)

Assay: Physical properties: solubility in solvents
Format: physicochemical

solubility (in a 50% acetonitrile aqueous solution): slightly soluble
solubility (in a 50% methanol aqueous solution): sparingly soluble
solubility (in acetone, acetonitrile, ethyl acetate, chloroform, dichloromethane, methanol, ethanol, and isopropanol): easily soluble
SMILES: O=C(C[C@H](C(=O)O)c1c[nH]c2ccccc12)c1ccc(F)cc1F [S(+) form of MA5, 4-(2,4-difluorophenyl)-2-(1H-indol-3-yl)-4-oxo-butanoic acid]
